US20090175845A1, “METHODS FOR IDENTIFYING COMPOUNDS THAT MODULATE PHB DOMAIN PROTEIN ACTIVITY AND COMPOSITIONS THEREOF” (THE TRUSTEES OF COLUMBIA UNIVERSITY IN THE CITY OF NEW YORK, priority 2005, published 2009)

Legend:
Podocin [1] = biological target: T1, Podocin (Mus musculus, UniProt Q91X05); assay: Detergent-resistant membrane (DRM) fractionation by density gradient centrifugation; format: cell-based; conditions: limited cholesterol depletion with MBCD; readdition of cholesterol, FIG. 1D
T1 construct: expressed in transfected cells; host or cells: HEK 293T
T1 sequence (Q91X05 1-385): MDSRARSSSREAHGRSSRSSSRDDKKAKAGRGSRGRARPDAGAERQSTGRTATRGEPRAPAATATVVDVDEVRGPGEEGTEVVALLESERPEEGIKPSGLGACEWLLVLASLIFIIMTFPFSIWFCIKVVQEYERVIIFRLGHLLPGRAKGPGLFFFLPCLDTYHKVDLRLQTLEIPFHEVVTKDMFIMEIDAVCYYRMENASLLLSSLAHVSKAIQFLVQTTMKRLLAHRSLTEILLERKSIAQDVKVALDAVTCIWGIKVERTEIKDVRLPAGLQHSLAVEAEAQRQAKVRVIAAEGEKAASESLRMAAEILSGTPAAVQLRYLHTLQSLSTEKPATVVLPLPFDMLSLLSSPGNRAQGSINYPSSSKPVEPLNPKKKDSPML
Description: (§1) Preparation of Detergent-Resistant Membrane Domains and Cholesterol Measurement—For preparation of low-density Triton® X-100—insoluble membrane domains (DRM; LDF) HEK 293T cells were homogenized by 20 strokes in a Dounce homogenizer in 1 ml of MBS buffer (250 mM NaCl, 5 mM EDTA, 10 mM Tris, pH 7.4, proteinase inhibitors) in the presence of 1% Triton® X-100 and centrifuged for ten minutes at 3,000×g at 4° C. The lysates were incubated for 45 minutes on ice in the presence of 1% Triton® X-100, adjusted to 45% sucrose and pipetted at the bottom of an ultracentrifuge tube. Samples were then overlaid with a sucrose step gradient (2 ml of 30% sucrose and 1 ml of 5% sucrose in MBS) as described previously {Huber, 2003 #205}. Gradients were centrifuged for 20 hours at 200,000×g at 4° C. in a swing-out rotor, and seven fractions ([…] each) were collected starting from the top and analyzed by SDS-PAGE. Cholesterol was measured using the Amplex® Red Cholesterol Assay Kit (Molecular Probes).
(§2) Cell Culture Studies. Most cell studies used HEK 293T cells that were grown in DMEM as described [Huber et al. (2001) J. Biol. Chem. 18:18]. Cholesterol-depleted cells were prepared by growing cells in DMEM with pravastatin (8 μM) for two days and then methyl-β-cyclodextrine (MBCD; 5 mM) for 30 minutes just before the experiment. […]

MEC-2 = assay: as above; format: cell-based, C. elegans; conditions: limited cholesterol depletion with MBCD, FIG. 1D
Description: as §1, §2

Podocin [2] = assay: Multimerization by velocity gradient centrifugation; format: cell-based, mouse; conditions: limited cholesterol depletion of Podocin-expressing cells, FIG. 5B
Description: PHB protein multimerization was studied by velocity gradient centrifugation and blue native gel electrophoresis [Schagger et al. (1991) Anal. Biochem. 199: 223-31]. For preparation of Podocin multimeric complexes HEK293T cells were lysed in 1 ml of Mes-buffered saline (MBS) in the presence of 1% Triton® X-100 and centrifuged for 10 minutes at 1,000×g at 4° C. After centrifugation, the supernatant was collected and SDS was added at a final concentration of 0.1% and incubated for 20 minutes on ice. Thereafter, the lysate was cleared by centrifugation for 15 minutes at 100,000×g. Four milliliters of a discontinuous sucrose gradient (40-5%) was layered on top of a 60% sucrose cushion in a Beckman ultracentrifuge tube. One milliliter of the cell lysate was adjusted with 1 ml of MBS, added on top of this gradient and subjected for centrifugation for 16 hours at 180,000×g at 4° C. in a Beckman SW-41 rotor. After centrifugation 2 ml of the supernatant were discarded and 8 fractions (500 μl each) were collected starting from the top and analyzed by SDS-PAGE.
Previously it was shown that shown that Podocin homo-oligomerizes and forms high-molecular weight complexes by homophilic interactions that require the PHB-domain [Huber et al. (2003) Hum. Mol. Genet. 12:3397-405]. MEC-2 also homo-oligomerizes (infra) as do other PHB-domain proteins [Umlauf et al. (2006) J. Biol. Chem.]. […]

HeLa-Cx43 cells = assay: Ca2+-FLIPR assay, histamine-induced calcium influx; format: cell-based; conditions: limited cholesterol depletion, FIG. 11D
Description: Ca^2+-FLIPR Assay—HeLa-Cx43 cells were loaded with […] FLUO-4/AM and 0.04% Pluronic F-127 (both from Molecular Probes) in HBS but with 20 mM HEPES and 2.5 mM probenecid as described previously (20). After loading, cells were washed twice with HBS by an automated plate washer (Denley Cellwash, Labsystems) and transferred to the FLIPR (Molecular Devices). The FLIPR integrates an argon laser excitation source, a 96-well pipettor, and a detection system utilizing a CCD imaging camera. […] of 3× histamine concentrations were delivered within 2 seconds simultaneously to all of the wells containing […] of HBS. Fluorescence emissions from the 96-wells were monitored simultaneously at an emission wavelength of 515 nm after excitation with 488 nm (F488). Fluorescence data were collected at 0.25 Hertz, 48 seconds before and 8 minutes after stimulation, and analyzed off-line. Histamine response amplitudes were determined from the fluorescence at 3.2 minutes (peak of calcium influx) of the solvent control-subtracted and base-line-corrected traces, and averaged over 3-4 wells of same transfectants, receiving the same stimulus. EC50 values and curves were derived from fitting the function f(x)=(a−d)/(1+(x/C)nH)+d to the data by non-linear regression with a=minimum, d=maximum, C=EC50, and nH=Hill coefficient. […]

## methyl-β-cyclodextrin [MBCD]
Podocin [1]
  Podocin in DRM fractions: loss of Podocin and MEC-2 from the DRM fractions
MEC-2
  MEC-2 in DRM fractions: loss of Podocin and MEC-2 from the DRM fractions
Podocin [2]
  formation of high-molecular weight complexes: did not interfere
HeLa-Cx43 cells
  Podocin-dependent stimulation of Ca2+ influx: abolished
